Measurements: ChEMBL document CHEMBL1201862, “PubChem BioAssay data set” (2004)
The source made the active and inactive calls.

Columns and labels:
SUMO-activating enzyme [1] = molecular target: T1, SUMO-activating enzyme (Homo sapiens, UniProt Q9UBT2); assay: blockers of UBC9-mediated SUMO conjugation – biochemical, AlphaScreen, SUMOylation inhibitor project, confirmation (AID 2018); format: functional
SUMO-activating enzyme [2] = molecular target: T1, SUMO-activating enzyme; assay: blockers of SAE1/SAE2–UBC9 SUMO transfer – biochemical, HTRF, uHTS, primary screen (AID 2006); format: protein-complex assay
[3] = molecular target: T2, Tyrosine-protein phosphatase non-receptor type 11 (Homo sapiens, UniProt Q06124); assay: PTPN11 enzyme inhibitors – biochemical, selectivity assay for STEP inhibitor project, dose response (AID 602367); format: functional; conditions: read-out: IC50_Mean
T2 sequence (Q06124 whole entry): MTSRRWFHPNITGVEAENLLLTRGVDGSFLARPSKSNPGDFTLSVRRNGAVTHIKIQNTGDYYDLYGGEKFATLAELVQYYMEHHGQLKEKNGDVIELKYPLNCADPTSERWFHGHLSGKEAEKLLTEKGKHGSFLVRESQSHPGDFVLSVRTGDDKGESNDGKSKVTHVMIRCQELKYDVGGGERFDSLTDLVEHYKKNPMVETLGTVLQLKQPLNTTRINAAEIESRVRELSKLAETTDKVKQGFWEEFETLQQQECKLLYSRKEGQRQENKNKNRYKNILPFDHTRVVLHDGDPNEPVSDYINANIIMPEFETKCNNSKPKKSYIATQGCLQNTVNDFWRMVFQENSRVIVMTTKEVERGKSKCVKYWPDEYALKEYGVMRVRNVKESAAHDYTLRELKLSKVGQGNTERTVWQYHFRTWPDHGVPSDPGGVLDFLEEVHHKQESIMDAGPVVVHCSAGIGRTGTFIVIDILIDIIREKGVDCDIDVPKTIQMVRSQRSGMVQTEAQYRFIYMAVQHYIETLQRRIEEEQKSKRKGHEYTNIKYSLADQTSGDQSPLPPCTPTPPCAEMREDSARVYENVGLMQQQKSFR

[4] = molecular target: 26S proteasome non-ATPase regulatory subunit 14 (Homo sapiens, UniProt O00487); assay: inhibition of proteasome subunit RPN11 – biochemical, fluorescence polarization, uHTS hits, confirmation (AID 602368); format: functional
[5] = molecular target: T3, Tyrosine-protein phosphatase non-receptor type 5 (Homo sapiens, UniProt P54829); assay: PTPN5 enzyme inhibition – biochemical, fluorescence intensity, uHTS hits, confirmation (AID 602372); format: functional; conditions: read-out: IC50_Mean
T3 sequence (P54829 whole entry): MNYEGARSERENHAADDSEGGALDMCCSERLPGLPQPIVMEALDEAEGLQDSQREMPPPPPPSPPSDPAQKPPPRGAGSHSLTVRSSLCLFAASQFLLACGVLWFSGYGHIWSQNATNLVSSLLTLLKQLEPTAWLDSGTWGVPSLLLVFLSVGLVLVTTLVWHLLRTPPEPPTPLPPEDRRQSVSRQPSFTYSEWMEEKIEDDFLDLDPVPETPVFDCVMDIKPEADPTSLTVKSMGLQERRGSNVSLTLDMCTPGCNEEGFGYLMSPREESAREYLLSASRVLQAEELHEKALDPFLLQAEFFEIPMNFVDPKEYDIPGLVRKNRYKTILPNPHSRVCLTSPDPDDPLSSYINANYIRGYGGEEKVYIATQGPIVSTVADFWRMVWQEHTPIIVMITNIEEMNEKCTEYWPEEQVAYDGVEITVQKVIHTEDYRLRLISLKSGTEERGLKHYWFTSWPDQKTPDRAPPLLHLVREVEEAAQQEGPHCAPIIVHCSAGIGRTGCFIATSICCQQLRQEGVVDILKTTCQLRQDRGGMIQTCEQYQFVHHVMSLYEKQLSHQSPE

[6] = molecular target: 72 kDa type IV collagenase (Homo sapiens, UniProt P08253); assay: Dose Response validation of uHTS RPN11 inhibitor hits using a MMP-2 Fluorescence assay.; format: functional
[7] = molecular target: Dual specificity protein phosphatase 3 (Homo sapiens, UniProt P51452); assay: VHR phosphatase inhibition, dose response, selectivity assay for STEP inhibitor project, biochemical (AID 602374); format: functional; conditions: read-out: IC50_Mean
Prothrombin [8] = molecular target: Prothrombin (Bos taurus, UniProt P00735); assay: thrombin protease inhibitors – biochemical, fluorescence polarization, uHTS hits, dose response (AID 602369); format: functional
[9] = molecular target: T4, Small ubiquitin-related modifier 1 (Homo sapiens, UniProt P63165); assay: SUMO1 protein interaction blockers, potency – biochemical, fluorescence polarization, uHTS hits, dose response (AID 624382); format: functional; conditions: read-out: IC50_Mean
[10] = molecular target: T4, Small ubiquitin-related modifier 1; assay: SUMO1 protein-protein binding blockers, potency – biochemical, FRET, dose response (AID 624383); format: functional; conditions: read-out: IC50_Mean
[11] = molecular target: T5, Calpain-2 catalytic subunit (Sus scrofa, UniProt P43367); assay: m-calpain protease blockers, concentration series – biochemical, fluorogenic peptide substrate, dose response (AID 1420); format: functional
T5 sequence (P43367 whole entry): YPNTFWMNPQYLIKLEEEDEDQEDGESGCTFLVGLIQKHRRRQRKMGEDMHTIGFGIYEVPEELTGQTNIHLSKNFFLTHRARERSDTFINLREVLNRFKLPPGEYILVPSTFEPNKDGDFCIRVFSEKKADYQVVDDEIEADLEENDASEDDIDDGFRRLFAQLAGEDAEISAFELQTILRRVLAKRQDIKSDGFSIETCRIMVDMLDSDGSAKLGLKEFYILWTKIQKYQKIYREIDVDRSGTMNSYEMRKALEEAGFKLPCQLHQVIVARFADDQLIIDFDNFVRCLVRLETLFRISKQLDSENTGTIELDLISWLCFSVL

Coagulation factor XII = molecular target: T6, Coagulation factor XII (Homo sapiens, UniProt P00748); format: functional;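 note: activated factor XIIa alpha cleaving a fluorogenic AMC peptide substrate; inhibitor potency from loss of enzyme activity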
T6 sequence (P00748 whole entry): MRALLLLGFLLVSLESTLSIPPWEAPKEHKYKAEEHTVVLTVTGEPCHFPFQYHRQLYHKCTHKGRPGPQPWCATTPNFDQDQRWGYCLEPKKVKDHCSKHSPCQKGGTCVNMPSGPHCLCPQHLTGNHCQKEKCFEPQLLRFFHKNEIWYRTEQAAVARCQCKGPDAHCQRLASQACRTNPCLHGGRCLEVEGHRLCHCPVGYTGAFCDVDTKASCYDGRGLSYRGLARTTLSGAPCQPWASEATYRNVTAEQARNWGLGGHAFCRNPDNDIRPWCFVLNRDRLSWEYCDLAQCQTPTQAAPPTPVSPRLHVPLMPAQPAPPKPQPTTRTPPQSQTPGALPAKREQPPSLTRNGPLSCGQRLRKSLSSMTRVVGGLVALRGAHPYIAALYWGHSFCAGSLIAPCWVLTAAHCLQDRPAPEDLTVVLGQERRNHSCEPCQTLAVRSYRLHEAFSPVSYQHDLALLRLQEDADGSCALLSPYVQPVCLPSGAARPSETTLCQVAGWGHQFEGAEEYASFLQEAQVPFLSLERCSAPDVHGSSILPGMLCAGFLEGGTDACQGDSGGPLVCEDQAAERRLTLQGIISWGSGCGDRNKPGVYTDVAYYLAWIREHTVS

[12] = Luminescence Cell-Based Dose Retest to Confirm Inhibitors of Cancer Stem Cells. [Related pubchem assays (depositor defined):AID2717, AID2721]; format: functional, Homo sapiens
[13] = Luminescence Cell-Based Dose Response HTS to Identify Activators of Luciferase Translation or Activity in H4 […] Cells. [Related pubchem assays: 1829 (Project Summary), 1814 (Primary HTS)]; format: functional
H4 = assay: Luminescence Cell-Based Dose Response HTS to Identify Activators of 5'UTR Stem-Loop Driven Prion Protein mRNA Translation in H4 Neuroglioblastoma Cells. [Related pubchem assays: 1829 (Project Summary), 1814 (Primary HTS)]; format: functional; conditions: Homo sapiens
Prothrombin [14] = molecular target: Prothrombin (Homo sapiens, UniProt P00734); assay: Thrombin 1536 HTS Dose Response Confirmation. [Related pubchem assays: 1046 (Thrombin 1536 HTS; hits were confirmed in this assay)]; format: functional
[15] = molecular target: T7, Mannose-6-phosphate isomerase (Homo sapiens, UniProt P34949); assay: MPI enzyme activity inhibition – biochemical, fluorescence intensity, coupled assay, primary screen (AID 1209)
T7 sequence (P34949 whole entry): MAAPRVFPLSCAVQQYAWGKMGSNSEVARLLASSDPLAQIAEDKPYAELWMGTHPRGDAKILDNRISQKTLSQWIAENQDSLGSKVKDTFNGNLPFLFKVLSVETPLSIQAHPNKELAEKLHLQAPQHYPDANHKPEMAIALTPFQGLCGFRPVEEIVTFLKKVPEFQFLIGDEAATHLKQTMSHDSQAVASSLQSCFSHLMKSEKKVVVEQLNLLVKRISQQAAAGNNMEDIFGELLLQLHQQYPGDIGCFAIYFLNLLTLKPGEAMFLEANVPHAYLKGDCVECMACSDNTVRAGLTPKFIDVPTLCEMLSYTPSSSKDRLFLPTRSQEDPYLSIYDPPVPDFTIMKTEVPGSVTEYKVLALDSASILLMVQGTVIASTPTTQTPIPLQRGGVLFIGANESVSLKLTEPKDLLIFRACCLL

[16] = molecular target: T7, Mannose-6-phosphate isomerase; assay: phosphomannose isomerase inhibition – biochemical, fluorescence intensity, confirmation (AID 1535)
Phosphomannomutase 2 = molecular target: T8, Phosphomannomutase 2 (Homo sapiens, UniProt O15305); assay: Counter screen SAR assay for PMM2 inhibitors via a fluorescence intensity assay. [Related pubchem assays (depositor defined):AID1545, AID1574]
T8 sequence (O15305 whole entry): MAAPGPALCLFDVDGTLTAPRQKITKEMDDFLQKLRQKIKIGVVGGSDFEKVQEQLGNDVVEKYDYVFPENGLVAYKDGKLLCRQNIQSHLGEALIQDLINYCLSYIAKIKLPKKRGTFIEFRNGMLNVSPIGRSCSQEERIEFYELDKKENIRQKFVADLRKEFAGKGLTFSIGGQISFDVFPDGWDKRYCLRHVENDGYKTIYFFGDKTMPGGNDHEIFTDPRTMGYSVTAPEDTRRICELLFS

[17] = molecular target: Intestinal-type alkaline phosphatase (Mus musculus, UniProt P24822); assay: PubChem AID 488785; format: functional
[18] = molecular target: T9, Alkaline phosphatase, tissue-nonspecific isozyme (Homo sapiens, UniProt P05186); assay: TNAP enzyme inhibition by screening hits, dose response, selectivity assay for mouse IAP inhibitor project, biochemical, human TNAP, uHTS hits (AID 488906); format: functional
T9 sequence (P05186 whole entry): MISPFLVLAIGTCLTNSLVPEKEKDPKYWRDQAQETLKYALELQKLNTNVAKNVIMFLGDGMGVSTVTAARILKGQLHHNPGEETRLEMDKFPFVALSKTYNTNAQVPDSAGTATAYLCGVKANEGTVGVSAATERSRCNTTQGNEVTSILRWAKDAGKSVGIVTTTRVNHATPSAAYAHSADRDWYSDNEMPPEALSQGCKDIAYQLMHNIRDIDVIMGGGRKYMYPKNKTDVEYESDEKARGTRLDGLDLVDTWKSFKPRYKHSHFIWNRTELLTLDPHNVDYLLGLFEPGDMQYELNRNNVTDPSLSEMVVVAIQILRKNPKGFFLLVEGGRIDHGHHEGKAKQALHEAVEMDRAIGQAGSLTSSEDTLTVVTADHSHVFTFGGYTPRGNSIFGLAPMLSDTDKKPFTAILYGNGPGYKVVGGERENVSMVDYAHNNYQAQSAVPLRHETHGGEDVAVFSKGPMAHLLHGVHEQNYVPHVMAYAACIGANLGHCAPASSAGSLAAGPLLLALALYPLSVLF

[19] = molecular target: Intestinal-type alkaline phosphatase (Homo sapiens, UniProt P09923); assay: inhibition of human intestinal alkaline phosphatase – biochemical, dose response (AID 488876); format: functional
HEK293 [20] = assay: inhibition of NOD1-driven NF-kB reporter – cell-based, luminescence, uHTS, primary screen (AID 1578); format: functional; conditions: Homo sapiens
HEK293 [21] = assay: cells; format: functional, cell-based; conditions: Homo sapiens
HEK293 [22] = assay: cells; format: functional, cell-based; conditions: Homo sapiens; remark: listed apart in the source
HEK293 [23] = assay: NOD2 signaling inhibitors in MDP-stimulated cells, cell-based, uHTS, luminescence (AID 2001); format: functional; conditions: Homo sapiens
HEK293 [24] = assay: cells; format: functional, cell-based; conditions: Homo sapiens; remark: listed apart in the source
HEK293 [25] = assay: cells; conditions: Homo sapiens
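Throughout, for AC50: cells exposed to compound for roughly 70 hours or longer before luminescence read.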

T1 sequence (Q9UBE0 whole entry): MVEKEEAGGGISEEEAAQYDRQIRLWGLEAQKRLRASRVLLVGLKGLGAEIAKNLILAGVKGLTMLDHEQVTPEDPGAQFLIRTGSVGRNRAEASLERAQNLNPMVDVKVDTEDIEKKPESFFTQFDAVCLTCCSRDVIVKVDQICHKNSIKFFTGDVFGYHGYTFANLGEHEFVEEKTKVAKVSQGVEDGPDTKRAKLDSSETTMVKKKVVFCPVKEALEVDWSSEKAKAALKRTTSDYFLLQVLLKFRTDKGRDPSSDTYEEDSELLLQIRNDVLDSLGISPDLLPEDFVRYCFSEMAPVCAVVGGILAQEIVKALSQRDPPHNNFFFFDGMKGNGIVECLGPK
T1 sequence (Q9UBT2 whole entry): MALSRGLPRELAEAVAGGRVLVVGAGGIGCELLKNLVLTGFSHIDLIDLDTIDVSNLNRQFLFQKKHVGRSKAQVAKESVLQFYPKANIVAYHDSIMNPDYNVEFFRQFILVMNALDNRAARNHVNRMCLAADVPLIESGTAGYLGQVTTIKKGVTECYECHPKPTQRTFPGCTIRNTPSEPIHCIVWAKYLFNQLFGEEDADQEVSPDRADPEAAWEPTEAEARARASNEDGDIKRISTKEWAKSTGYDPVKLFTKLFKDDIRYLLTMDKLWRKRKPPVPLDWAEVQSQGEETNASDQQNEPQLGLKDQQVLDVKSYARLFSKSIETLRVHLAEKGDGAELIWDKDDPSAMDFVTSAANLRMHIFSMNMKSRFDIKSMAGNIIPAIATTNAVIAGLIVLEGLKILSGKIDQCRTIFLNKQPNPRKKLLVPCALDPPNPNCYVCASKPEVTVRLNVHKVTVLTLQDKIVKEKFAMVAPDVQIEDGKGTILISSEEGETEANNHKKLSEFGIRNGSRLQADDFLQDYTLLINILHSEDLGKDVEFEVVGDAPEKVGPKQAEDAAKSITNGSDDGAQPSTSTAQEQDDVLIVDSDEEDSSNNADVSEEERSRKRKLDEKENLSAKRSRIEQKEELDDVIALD
T4 sequence (P63165 whole entry): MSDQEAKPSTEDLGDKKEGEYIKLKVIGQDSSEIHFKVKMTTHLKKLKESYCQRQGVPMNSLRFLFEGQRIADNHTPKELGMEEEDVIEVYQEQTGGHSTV
Chain of 72 kDa type IV collagenase (P08253 whole entry): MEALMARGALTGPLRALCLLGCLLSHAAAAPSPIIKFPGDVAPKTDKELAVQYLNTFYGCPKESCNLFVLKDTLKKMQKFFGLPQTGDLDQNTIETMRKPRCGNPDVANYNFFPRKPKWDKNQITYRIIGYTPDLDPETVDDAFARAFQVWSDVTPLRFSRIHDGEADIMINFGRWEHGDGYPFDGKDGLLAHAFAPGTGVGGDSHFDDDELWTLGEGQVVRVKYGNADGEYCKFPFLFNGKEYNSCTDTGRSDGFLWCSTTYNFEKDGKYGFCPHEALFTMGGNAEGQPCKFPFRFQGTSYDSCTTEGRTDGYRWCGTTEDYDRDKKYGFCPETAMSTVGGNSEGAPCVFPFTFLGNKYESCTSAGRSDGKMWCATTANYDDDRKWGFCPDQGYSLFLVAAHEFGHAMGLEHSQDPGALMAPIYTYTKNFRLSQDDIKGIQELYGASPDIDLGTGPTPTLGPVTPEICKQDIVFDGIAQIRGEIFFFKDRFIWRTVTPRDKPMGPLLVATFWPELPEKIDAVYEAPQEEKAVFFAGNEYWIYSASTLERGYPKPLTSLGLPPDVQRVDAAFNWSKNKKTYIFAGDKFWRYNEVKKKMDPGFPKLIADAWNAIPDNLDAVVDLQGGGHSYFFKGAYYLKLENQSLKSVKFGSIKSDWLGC
Chain of Dual specificity protein phosphatase 3 (P51452 whole entry): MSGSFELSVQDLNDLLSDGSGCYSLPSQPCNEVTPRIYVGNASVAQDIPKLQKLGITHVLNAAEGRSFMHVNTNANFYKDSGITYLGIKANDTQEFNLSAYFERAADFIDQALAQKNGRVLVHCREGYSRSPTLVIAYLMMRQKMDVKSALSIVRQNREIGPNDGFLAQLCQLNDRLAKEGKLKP
Chain of 26S proteasome non-ATPase regulatory subunit 14 (O00487 whole entry): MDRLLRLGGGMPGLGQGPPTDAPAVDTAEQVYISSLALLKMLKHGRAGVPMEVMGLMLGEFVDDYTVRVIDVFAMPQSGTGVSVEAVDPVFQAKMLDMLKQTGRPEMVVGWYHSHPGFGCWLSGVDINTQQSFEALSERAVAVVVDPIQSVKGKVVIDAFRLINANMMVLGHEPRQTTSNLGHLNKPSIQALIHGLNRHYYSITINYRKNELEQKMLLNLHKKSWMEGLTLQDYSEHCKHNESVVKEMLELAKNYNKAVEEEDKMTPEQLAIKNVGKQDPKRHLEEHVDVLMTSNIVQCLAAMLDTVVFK
Chain of Intestinal-type alkaline phosphatase (Homo sapiens, UniProt P09923) (P09923 whole entry): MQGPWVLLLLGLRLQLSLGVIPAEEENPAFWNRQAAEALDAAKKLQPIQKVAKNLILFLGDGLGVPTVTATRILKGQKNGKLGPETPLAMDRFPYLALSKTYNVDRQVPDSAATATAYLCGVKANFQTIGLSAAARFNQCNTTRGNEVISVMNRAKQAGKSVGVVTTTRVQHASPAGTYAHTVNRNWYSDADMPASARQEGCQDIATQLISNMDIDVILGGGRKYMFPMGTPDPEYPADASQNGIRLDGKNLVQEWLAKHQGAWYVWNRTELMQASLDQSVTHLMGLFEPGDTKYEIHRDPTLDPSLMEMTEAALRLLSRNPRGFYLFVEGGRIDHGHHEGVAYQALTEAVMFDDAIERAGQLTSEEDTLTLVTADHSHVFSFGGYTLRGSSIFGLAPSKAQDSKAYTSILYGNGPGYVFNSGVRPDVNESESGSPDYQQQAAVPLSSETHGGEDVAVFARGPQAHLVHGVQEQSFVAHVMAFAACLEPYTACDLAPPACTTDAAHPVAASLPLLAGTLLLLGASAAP
Chain of Intestinal-type alkaline phosphatase (Mus musculus, UniProt P24822) (P24822 whole entry): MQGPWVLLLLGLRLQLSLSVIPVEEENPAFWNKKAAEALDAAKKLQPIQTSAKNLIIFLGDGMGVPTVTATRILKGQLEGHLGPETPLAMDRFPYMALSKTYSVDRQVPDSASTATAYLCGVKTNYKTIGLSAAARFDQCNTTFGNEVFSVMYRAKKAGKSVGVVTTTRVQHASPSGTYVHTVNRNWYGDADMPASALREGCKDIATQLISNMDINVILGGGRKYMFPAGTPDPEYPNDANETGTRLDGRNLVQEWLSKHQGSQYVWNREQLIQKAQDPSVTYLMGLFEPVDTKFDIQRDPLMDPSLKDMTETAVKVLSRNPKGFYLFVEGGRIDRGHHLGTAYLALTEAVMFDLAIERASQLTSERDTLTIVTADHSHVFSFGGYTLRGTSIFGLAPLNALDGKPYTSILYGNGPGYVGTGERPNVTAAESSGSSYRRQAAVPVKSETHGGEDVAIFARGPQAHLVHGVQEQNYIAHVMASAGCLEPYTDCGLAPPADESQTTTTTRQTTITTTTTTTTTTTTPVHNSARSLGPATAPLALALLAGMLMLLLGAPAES

## O=Cc1cn(-c2ccccc2)nc1-c1cc2cc(O)ccc2oc1=O
SUMO-activating enzyme [1]
  IC50: 11.4 µM (active)
SUMO-activating enzyme [2]
  IC50: 18.1 µM (active)
[3]
  IC50: 1.96 µM (active)
[4]
  IC50: 19.4 µM (active)
[5]
  IC50: 27.5 µM (inactive)
[6]
  IC50: > 100 µM (inactive)
[7]
  IC50: 3.02 µM (active)
Prothrombin [8]
  IC50: 35.5 µM (active)
[9]
  IC50: > 66.6 µM (inactive)
[10]
  IC50: 7.28 µM (active)

## O=C1N=C(Nc2ccccc2)S/C1=C/c1cccs1
[11]
  IC50: > 50 µM (not active)
Coagulation factor XII
  IC50: > 50 µM (inactive)

## C=C(C)[C@@H]1CC[C@]2(C(=O)O)CC[C@]3(C)[C@H](CC[C@@H]4[C@@]5(C)CC[C@H](O)C(C)(C)[C@@H]5CC[C@]43C)[C@@H]12 [BETULINIC ACID]
SUMO-activating enzyme [1]
  IC50: 13.2 µM (active)
SUMO-activating enzyme [2]
  IC50: 9.24 µM (active)
[12]
  AC50: 1.94 µM (active)
[12]; Homo sapiens
  AC50: 3.05 µM (active)

## O=C(NNC1=NCCCCC1)Nc1cccc(Cl)c1
[13]
  EC50: 0.409 µM (active)
H4
  EC50: 0.242 µM (active)
Prothrombin [14]
  IC50: 7.74 µM (active)
Coagulation factor XII
  IC50: > 50 µM (inactive)

## O=C(CSc1nc[nH]n1)CSc1nc[nH]n1
[15]
  IC50: 12.7 µM (active)
[16]
  IC50: > 50 µM (inactive)
Phosphomannomutase 2
  IC50: > 100 µM (inactive)
[17]
  IC50: 0.373 µM (active)
[18]
  IC50: 8.85 µM (active)
[19]
  IC50: 7.33 µM (active)

## Cc1oc(-c2ccccc2Cl)nc1CSc1nc(O)c2c(n1)CCCC2
HEK293 [20]
  EC50: 8.45 µM (active)
HEK293 [21]
  IC50: 19.5 µM (active)
HEK293 [22]
  IC50: > 20 µM (inactive)
HEK293 [23]
  IC50: 7.49 µM (active)
HEK293 [24]
  IC50: > 20 µM (inactive)
HEK293 [25]
  IC50: > 20 µM (inactive)
